Test results as given in ChEMBL document CHEMBL1159386, “New bioactive coumarins from Kielmeyera albopunctata” (2003).
≈ marks a conversion by molar mass, not a printed value.

Columns and labels:
Type in all cases: functional
[1] = system: KB; experiment: Cytotoxicity against human KB cells; conditions: read-out: ED50 (the source's name)
[2] = system: Col2; experiment: Cytotoxicity against human Col2 cells; conditions: read-out: ED50 (the source's name)
[3] = system: Trypanosoma cruzi; experiment: Antitrypanosomal activity against Trypanosoma cruzi trypomastigotes assessed as parasite lysis 500 ug/mL after 24 hrs
[4] = system: LNCaP; experiment: Cytotoxicity against human LNCAP cells; conditions: read-out: ED50 (the source's name)
[5] = system: Lu1; experiment: Cytotoxicity against human Lu1 cells; conditions: read-out: ED50 (the source's name)
[6] = system: Trypanosoma cruzi; experiment: Antitrypanosomal activity against Trypanosoma cruzi trypomastigotes assessed as parasite lysis 125 ug/mL after 24 hrs
[7] = system: Trypanosoma cruzi; experiment: Antitrypanosomal activity against Trypanosoma cruzi trypomastigotes assessed as parasite lysis 7.5 ug/mL after 24 hrs

Row | SMILES | EC50 [1] [µg/mL] | EC50 [2] [µg/mL] | Activity [3] [%] | EC50 [4] [µg/mL] | EC50 [5] [µg/mL] | Activity [6] [%] | Activity [7] [%]
1 | CC(C)=CCc1c(O)c(C(=O)CC(C)CO)c2oc(=O)cc(-c3ccccc3)c2c1O (stereo not given) | 17.7 (≈ 41.9 µM) | 17.4 (≈ 41.2 µM) | 98 | 15.9 (≈ 37.6 µM) | 19.8 (≈ 46.9 µM) | – | –
2 | CCC(C)c1cc(=O)oc2c(C(=O)CC(C)CO)c(O)c(CC=C(C)C)c(O)c12 (stereo not given) | 15.8 (≈ 39.3 µM) | 13.1 (≈ 32.5 µM) | 100 | 14 (≈ 34.8 µM) | 19.4 (≈ 48.2 µM) | 80 | –
3 | CCC(C)c1cc(=O)oc2c(C(=O)CC(C)CO)c(O)c3c(c12)OC(C(C)(C)O)C3 (stereo not given) | > 20 | > 20 | – | > 20 | > 20 | – | –
4 | Cc1c2ccncc2c(C)c2c1[nH]c1ccccc12 [ELLIPTECINE] | 0.04 (≈ 0.162 µM) | 0.3 (≈ 1.22 µM) | – | 0.8 (≈ 3.25 µM) | 0.02 (≈ 0.0812 µM) | – | –
5 | CN(C)c1ccc(C(=C2C=CC(=[N+](C)C)C=C2)c2ccc(N(C)C)cc2)cc1.[Cl-] [GENTIAN VIOLET] | – | – | – | – | – | – | 50
